In ChEMBL document CHEMBL1140847, “Spectroscopic and calorimetric studies on the DNA recognition of pyrrolo[2,1-c][1,4]benzodiazepine hybrids” (Bioorg Med Chem, 2009):
Activity calls are given as the source filed them. No cut-off for these calls is given here.

Assays:
[1] = Binding affinity to oligonucleotide duplex DNA D3 at drug-duplex molar ratio of 2:1 assessed as change in melting temperature by UV melting experiment
[2] = Binding affinity to oligonucleotide duplex DNA D8 at drug-duplex molar ratio of 2:1 assessed as change in melting temperature by UV melting experiment
[3] = Binding affinity to oligonucleotide duplex DNA D5 at drug-duplex molar ratio of 2:1 assessed as change in melting temperature by UV melting experiment
[4] = Binding affinity to oligonucleotide duplex DNA D2a at drug-duplex molar ratio of 2:1 assessed as change in melting temperature by UV melting experiment
[5] = Binding affinity to oligonucleotide duplex DNA D6 at drug-duplex molar ratio of 2:1 assessed as change in melting temperature by UV melting experiment
[6] = Binding affinity to oligonucleotide duplex DNA D7 at drug-duplex molar ratio of 2:1 assessed as change in melting temperature by UV melting experiment
[7] = Binding affinity to oligonucleotide duplex DNA D1 at drug-duplex molar ratio of 2:1 assessed as change in melting temperature by UV melting experiment
[8] = Binding affinity to oligonucleotide duplex DNA D2a at 6.6 uM by circular dichroism
[9] = Binding affinity to oligonucleotide hairpin duplex DNA D2d at 26 uM by UV titration experiment
[10] = Binding affinity to oligonucleotide hairpin duplex DNA D2d by fluorescence titration experiment
[11] = Binding affinity to oligonucleotide duplex DNA D2b at drug-duplex molar ratio of 2:1 assessed as change in melting temperature by UV melting experiment
[12] = Binding affinity to oligonucleotide duplex DNA D2e at drug-duplex molar ratio of 2:1 assessed as change in melting temperature by UV melting experiment
[13] = Binding affinity to oligonucleotide duplex DNA D2c at drug-duplex molar ratio of 2:1 assessed as change in melting temperature by UV melting experiment
[14] = Binding affinity to oligonucleotide duplex DNA D4 at drug-duplex molar ratio of 2:1 assessed as change in melting temperature by UV melting experiment
[15] = Binding affinity to oligonucleotide hairpin duplex DNA D2d by isothermal titration calorimetry
[16] = Binding affinity to oligonucleotide duplex DNA D2a at 10 uM by circular dichroism

| SMILES | ΔTm [1] [°C] | ΔTm [2] [°C] | ΔTm [3] [°C] | ΔTm [4] [°C] | ΔTm [5] [°C] | ΔTm [6] [°C] | ΔTm [7] [°C] | Activity [8] | Activity [9] | Ka [10] [×10⁶ /M] | ΔTm [11] [°C] | ΔTm [12] [°C] | ΔTm [13] [°C] | ΔTm [14] [°C] | Ka [15] [×10⁵ /M] | Activity [16] |
| --- | --- | --- | --- | --- | --- | --- | --- | --- | --- | --- | --- | --- | --- | --- | --- | --- |
| COc1cc2c(cc1OCCCN1CCN(CCN3C(=O)c4cccc5cccc(c45)C3=O)CC1)N=C[C@@H]1CCCN1C2=O | 39.5 | 35 | 30.3 | 34 | 37.3 | 31.5 | 9 | Active | Active | 3.8 | 34.3 | 35 | 6.5 | 36.8 | 7.8 |  |
| COc1cc2c(cc1OCCCOc1ccc(-c3nc4ccc(N5CCN(C)CC5)cc4[nH]3)cc1)N=C[C@@H]1CCCN1C2=O |  | 0 | 32.5 | 33 | 34.5 | 27 | 10 |  | Active | 5.6 | 39 | 37 | 9 | 34.3 | 8.9 | Active |
